Measurements taken from patent US8309767B2, “2-aminobenzoyl derivatives” (Neurim Pharmaceuticals (1991) Ltd., priority 2003, dated 2012).

Tests used:
[1] = test system: MPTP-treated mice; test: Anti-Parkinsonian activity: motor activity of MPTP-treated mice with/without a subthreshold dose of L-Dopa; assay type: in vivo, C57 BL/6 mice; conditions: for LOCOMOTION / REARING / TOTAL ACTIVITY: mean ± SD
Experimental: Evaluation of the anti-Parkinsonian activity using MPTP-treated mice with/without a subthreshold dose of L-Dopa
Animals: six month old male C57 BL/6 mice, weighing 22-25 g were used. Following arrival at the laboratory, the mice were allowed to acclimatise for two weeks in a room with controlled temperature (21±1° C.), and a constant light-dark schedule (12 hr on/12 hr off, lights on between 06.00 and 18.00 hrs). Free access to food and water was maintained throughout. They were housed in groups of 12 animals and tested only during the hours of light (08.00-15.00 hrs). All testing was performed in a normally lighted room. Each test chamber (i.e. activity test cage) was placed in a soundproofed wooden box with 12 cm thick walls and front panels and had dimmed lighting.
Behavioral measurements and apparatus: An automated device, consisting of macrolon rodent test cages (40×25×15 cm) each placed within two series of infra-red beams (at two different heights, one low and one high, 2 and 8 cm, respectively, above the surface of the sawdust, 1 cm deep), was used to measure spontaneous and/or drug-induced motor activity of MPTP and control mice. The following parameters were measured: LOCOMOTION was measured by the low grid of infrared beams. Counts were registered only when the mouse in the horizontal plane, ambulating around the test-cage. REARING was registered throughout the time when at least one high level beam was interrupted, i.e. the number of counts registered was proportional to the amount of time spent rearing. TOTAL ACTIVITY was measured by a sensor (a pick-up similar to a gramophone needle, mounted on a lever with a counterweight) with which the test cage was constantly in contact. The sensor registered all types of vibration received from the test cage, such as those produced both by locomotion and rearing as well as shaking, tremors, scratching and grooming.
Behavioral measurements (locomotion, rearing and total activity): Twelve days after MPTP injections (2×40 mg/kg, s.c., 24 hr interval), the mice were injected i.p with 2-(2-aminobenzoyl)-N-(2,4-dinitrophenyl)ethylamine (0.3, 1, 3, 10 mg/kg) or vehicle (10% DMSO, 1% CMC) and immediately thereafter placed in the activity test chambers and their motor behaviour were monitored for 60 min. After 60 min, the mice were injected with 5 mg/kg L-Dopa (s.c) and then replaced in the test chamber and activity measurements maintained for a further 240 min. Each dose was separated by two days, starting from the lowest dose.
Table 1 presents the mean (± standard deviations) locomotion, rearing and total activity counts of MPTP-treated and control mice administered either 2-(2-aminobenzoyl)-N-(2,4-dinitrophenyl)ethylamine or vehicle administered with a subthreshold dose of L-Dopa. 1 % level of significance is represented by an asterisk (Tukey HSD test).

[2] = test system: NMDA receptors; test: Electrophysiological characterisation of NMDA-activated currents in freshly isolated hippocampal neurones (whole-cell patch clamp); assay type: cell-based; conditions: rat hippocampal neurones
Experimental: Electrophysiological characterisation of NMDA-activated currents in freshly isolated hippocampal neurones of rat.
Isolation of hippocampal neurons: Wistar rats (12-14 days) were decapitated without anaesthesia and the hippocampus was removed. It was manually cut into slices (0.2-0.4 mm), in a solution containing (mM): 150 NaCl; 5 KCl; 1.25 NaH2PO4; 2 CaCl2; 2 MgCl2; 26 NaHCO3; 20 glucose. Slices were preincubated in this solution for 30 min at room temperature. The enzymatic treatment proceeded in the same solution with lower Ca2+ concentration (0.5 mm) containing 0.4 mg/ml protease from aspergillus oryzae. The incubation in the enzyme solution proceeded at 32° C. within 10 min. […]
Current recording and data analysis: The drug-containing solutions were applied by the fast “concentration clamp” method using “jumping table” set-up (Pharma Robot, Kiev). The currents were recorded with patch clamp technique in the whole-cell configuration. […]
NMDA-activated currents: The currents were filtered at 3 kHz (three-pole active Bessel filter) digitally sampled at the rate […] for NMDA activated currents. NMDA-induced transmembrane currents were measured in the presence of 10 μM glycine and 300 μM L-aspartate in the control and test solutions. The currents were recorded at holding potential −70 mV. […]

[3] = MPTP mice, 0.3 mg/kg i.p. with subthreshold L-Dopa 5 mg/kg s.c.
[4] = MPTP mice, 1 mg/kg i.p. with subthreshold L-Dopa 5 mg/kg s.c., * 1% significance
[5] = MPTP mice, 3 mg/kg i.p. with subthreshold L-Dopa 5 mg/kg s.c., * 1% significance
[6] = MPTP mice, 10 mg/kg i.p. with subthreshold L-Dopa 5 mg/kg s.c., * 1% significance

## Nc1ccccc1C(=O)CCNc1ccc([N+](=O)[O-])cc1[N+](=O)[O-] [2-(2-aminobenzoyl)-N-(2,4-dinitrophenyl)ethylamine]
[1]; 1, 3 or 10 mg/kg, compared to the MPTP vehicle group
  locomotion, rearing and total activity of MPTP-treated mice: improved significantly
[1]; [3]
  LOCOMOTION: 273 ± 64 counts
  REARING: 290 ± 73 counts
  TOTAL ACTIVITY: 5160 ± 1093 counts
[1]; [4]
  LOCOMOTION: 473 ± 108 counts
  REARING: 582 ± 145 counts
  TOTAL ACTIVITY: 6250 ± 625 counts
[1]; [5]
  LOCOMOTION: 510 ± 107 counts
  REARING: 731 ± 110 counts
  TOTAL ACTIVITY: 6563 ± 781 counts
[1]; [6]
  LOCOMOTION: 470 ± 110 counts
  REARING: 619 ± 102 counts
  TOTAL ACTIVITY: 6250 ± 625 counts
[1]; MPTP mice, any dose (0.3-10 mg/kg i.p.), compared to MPTP-treated vehicle mice
  effect on motor behaviour in the first 60-min period before L-Dopa: no effect at any dose
[1]; MPTP mice, with L-Dopa 5 mg/kg s.c.
  all three behavioural parameters when administered together with a subthreshold dose of L-Dopa: improved significantly
[1]; vehicle control (non-MPTP) animals
  effect on motor variables in vehicle control animals: no effects in any variable
[2]
  activity on NMDA receptors: blocking activity
